In patent publication US20160159814A1, “GLYCINE TRANSPORTER INHIBITOR” (TAISHO PHARMACEUTICAL CO., LTD., priority 2013, published 2016):

What follows are compounds tested against T1, human type 1 glycine transporter (GlyT1) (Homo sapiens, UniProt P48067) (assay: Glycine uptake inhibition experiment ([3H] glycine uptake in T98G cells expressing GlyT1)). Settings: not given.
T1 construct: T98G cells (glioma cells) expressing human type 1 glycine transporter (GlyT1) were used; endogenous in cells; host or cells: T98G cells (human glioma cells)
T1 sequence (P48067 1-706): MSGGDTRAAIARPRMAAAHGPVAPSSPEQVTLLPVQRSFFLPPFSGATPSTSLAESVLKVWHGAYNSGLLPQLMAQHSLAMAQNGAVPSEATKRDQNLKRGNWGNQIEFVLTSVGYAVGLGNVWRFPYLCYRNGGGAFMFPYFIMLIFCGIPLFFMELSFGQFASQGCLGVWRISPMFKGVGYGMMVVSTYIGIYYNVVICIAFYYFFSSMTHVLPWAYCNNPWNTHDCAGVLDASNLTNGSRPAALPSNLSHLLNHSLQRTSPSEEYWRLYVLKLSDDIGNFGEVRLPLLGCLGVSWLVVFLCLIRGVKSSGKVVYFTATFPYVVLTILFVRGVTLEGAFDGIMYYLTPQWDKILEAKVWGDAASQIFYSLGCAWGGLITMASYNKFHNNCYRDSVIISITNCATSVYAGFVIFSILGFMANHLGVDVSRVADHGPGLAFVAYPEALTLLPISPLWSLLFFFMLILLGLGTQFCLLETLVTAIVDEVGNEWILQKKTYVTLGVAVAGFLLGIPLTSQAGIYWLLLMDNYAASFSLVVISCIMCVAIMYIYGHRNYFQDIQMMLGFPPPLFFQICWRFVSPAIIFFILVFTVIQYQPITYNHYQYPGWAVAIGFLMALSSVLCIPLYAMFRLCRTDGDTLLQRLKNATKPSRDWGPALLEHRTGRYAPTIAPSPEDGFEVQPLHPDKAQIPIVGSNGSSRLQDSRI
Assay type: cell-based
How it was run: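 T98G glioma cells expressing human GlyT1 were pretreated 10 min with compound in HEPES buffer pH 7.4 (0.2% BSA), then incubated with compound plus 250 nM final [3H]glycine for 15 min at room temperature. Intracellular radioactivity was counted after NaOH lysis; 10 μM ALX5407 defined non-specific uptake. IC50 came from 10^−9–10^−5 M curves.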

Row | Compound | IC50
1 | N#Cc1cc(Cl)cnc1CN1C(=O)C(F)(F)c2c(C(O)C(F)F)cccc21 (single isomer, unassigned) [Compound 276, 5-chloro-2-{[4-(2,2-difluoro-1-hydroxyethyl)-3,3-difluoro-2-oxo-2,3-dihydro-1H-indol-1-yl]methyl}pyridine-3-carbonitrile] | 200 nM
2 | C[C@H](O)c1cccc2c1C(F)(F)C(=O)N2Cc1cc(C(F)(F)F)c(Cl)cn1 [Compound 212, 1-{[5-chloro-4-(trifluoromethyl)pyridin-2-yl]methyl}-3,3-difluoro-4-[(1S)-1-hydroxyethyl]-1,3-dihydro-2H-indol-2-one] | 8.2 nM
3 | C[C@H](O)c1cccc2c1C(F)(F)C(=O)N2Cc1cnc(Cl)c(C#N)c1 [Compound 251, 2-chloro-5-({3,3-difluoro-4-[(1S)-1-hydroxyethyl]-2-oxo-2,3-dihydro-1H-indol-1-yl)methyl)pyridine-3-carbonitrile] | 20 nM
4 | C[C@H](O)c1ccc(F)c2c1C(F)(F)C(=O)N2Cc1ccnc(C#N)c1 [Compound 277, 4-({3,3,7-trifluoro-4-[(1S)-1-hydroxyethyl]-2-oxo-2,3-dihydro-1H-indol-1-yl}methyl)pyridine-2-carbonitrile] | 14 nM
5 | C[C@H](O)c1cccc2c1C(F)(F)C(=O)N2Cc1ccnc(OC(F)F)c1 [Compound 194, 1-{[2-(difluoromethoxy)pyridin-4-yl]methyl}-3,3-difluoro-4-[(1S)-1-hydroxyethyl]-1,3-dihydro-2H-indol-2-one] | 43 nM
6 | C[C@H](O)c1cccc2c1C(F)(F)C(=O)N2Cc1cnccc1Cl [Compound 207, 1-[(4-chloropyridin-3-yl)methyl]-3,3-difluoro-4-[(1S)-1-hydroxyethyl]-1,3-dihydro-2H-indol-2-one] | 94 nM
7 | COc1nc(CN2C(=O)C(F)(F)c3c([C@H](C)O)cccc32)ccc1Cl [Compound 249, 1-[(5-chloro-6-methoxypyridin-2-yl)methyl]-3,3-difluoro-4-[(1S)-1-hydroxyethyl]-1,3-dihydro-2H-indol-2-one] | 58 nM
8 | C[C@H](O)c1cccc2c1C(F)(F)C(=O)N2Cc1ccc(C2CC2)nc1 [Compound 198, 1-[(6-cyclopropylpyridin-3-yl)methyl]-3,3-difluoro-4-[(1S)-1-hydroxyethyl]-1,3-dihydro-2H-indol-2-one] | 160 nM
9 | O=C1N(Cc2cncc(Cl)c2)c2cc(F)cc(C(O)C(F)F)c2C1(F)F (stereo not shown) [Compound 234, 1-[(5-chloropyridin-3-yl)methyl)-4-(2,2-difluoro-1-hydroxyethyl)-3,3,6-trifluoro-1,3-dihydro-2H-indol-2-one] | 620 nM
10 | C[C@H](O)c1cccc2c1C(F)(F)C(=O)N2Cc1cnc(Cl)cn1 [Compound 199, 1-[(5-chloropyrazin-2-yl)methyl]-3,3-difluoro-4-[(1S)-1-hydroxyethyl]-1,3-dihydro-2H-indol-2-one] | 110 nM
11 | COc1cc(CN2C(=O)C(F)(F)c3c(C(O)C(F)F)cccc32)cnc1F (single isomer, unassigned) [Compound 273, 4-(2,2-difluoro-1-hydroxyethyl)-3,3-difluoro-1-[(6-fluoro-5-methoxypyridin-3-yl)methyl]-1,3-dihydro-2H-indol-2-one] | 140 nM
12 | Cn1c(CN2C(=O)C(F)(F)c3c(C(O)C(F)F)cccc32)nc2cc(F)ccc2c1=O (single isomer, unassigned) [Compound 178, 2-{[4-(2,2-difluoro-1-hydroxyethyl)-3,3-difluoro-2-oxo-2,3-dihydro-1H-indol-1-yl]methyl}-7-fluoro-3-methylquinazolin-4(3H)-one] | 44 nM

Same assay, conditions: glycine uptake inhibition

Row | Compound | IC50
13 | C[C@H](O)c1cccc2c1C(F)(F)C(=O)N2Cc1ccccc1 [Compound 54, 1-benzyl-3,3-difluoro-4-[(1S)-1-hydroxyethyl]-1,3-dihydro-2H-indol-2-one] | 20 nM
14 | C[C@H](O)c1cccc2c1C(F)(F)C(=O)N2Cc1ccc2nonc2c1 [Compound 76, 1-(2,1,3-benzoxadiazol-5-ylmethyl)-3,3-difluoro-4-[(1S)-1-hydroxyethyl]-1,3-dihydro-2H-indol-2-one] | 8.7 nM
15 | C[C@H](O)c1cccc2c1C(F)(F)C(=O)N2Cc1ccnc(C(F)(F)F)c1 [Compound 86, 3,3-difluoro-4-[(1S)-1-hydroxyethyl]-1-{[2-(trifluoromethyl)pyridin-4-yl]methyl}-1,3-dihydro-2H-indol-2-one] | 24 nM
16 | C[C@H](O)c1cccc2c1C(F)(F)C(=O)N2Cc1cccc(-n2nccn2)n1 [Compound 44, 3,3-difluoro-4-[(1S)-1-hydroxyethyl]-1-{[6-(2H-1,2,3-triazol-2-yl)pyridin-2-yl]methyl}-1,3-dihydro-2H-indol-2-one] | 68 nM
17 | C[C@H](O)c1cccc2c1C(F)(F)C(=O)N2Cc1ccc(C(F)(F)F)cn1 [Compound 112, 3,3-difluoro-4-[(1S)-1-hydroxyethyl]-1-{[5-(trifluoromethyl)pyridin-2-yl]methyl}-1,3-dihydro-2H-indol-2-one] | 29 nM
18 | C[C@H](O)c1cccc2c1C(F)(F)C(=O)N2Cc1cc2ccccc2c(=O)[nH]1 [Compound 99, 3-({3,3-difluoro-4-[(1S)-1-hydroxyethyl]-2-oxo-2,3-dihydro-1H-indol-1-yl}methyl) isoquinolin-1(2H)-one] | 48 nM
19 | O=C1N(Cc2cccc(Cl)n2)c2cccc(C(O)C(F)F)c2C1(F)F (stereo not shown) [Compound 10, 1-[(6-chloropyridin-2-yl)methyl]-4-(2,2-difluoro-1-hydroxyethyl)-3,3-difluoro-1,3-dihydro-2H-indol-2-one] | 27 nM
20 | CC(O)c1cccc2c1C(F)(F)C(=O)N2Cc1ccnc(Cl)c1 (single isomer, unassigned) [Compound 34, 1-[(2-chloropyridin-4-yl)methyl]-3,3-difluoro-4-(1-hydroxyethyl)-1,3-dihydro-2H-indol-2-one] | 4600 nM
21 | CC(O)c1cccc2c1C(F)(F)C(=O)N2Cc1cncc(Cl)c1 (stereo not shown) [Compound 3, 1-[(5-chloropyridin-3-yl)methyl]-3,3-difluoro-4-(1-hydroxyethyl)-1,3-dihydro-2H-indol-2-one] | 32 nM
22 | C[C@H](O)c1cccc2c1C(F)(F)C(=O)N2Cc1cncc(Cl)n1 [Compound 72, 1-[(6-chloropyrazin-2-yl)methyl]-3,3-difluoro-4-[(1S)-1-hydroxyethyl]-1,3-dihydro-2H-indol-2-one] | 12 nM
23 | O=C1N(Cc2cc3ccccc3c(=O)[nH]2)c2cccc([C@@H](O)C(F)(F)F)c2C1(F)F [Compound 138, 3-({3,3-difluoro-2-oxo-4-[(1R)-2,2,2-trifluoro-1-hydroxyethyl]-2,3-dihydro-1H-indol-1-yl}methyl) isoquinolin-1(2H)-one] | 58 nM
24 | N#Cc1cc(CN2C(=O)C(F)(F)c3c(C(O)C(F)F)cccc32)ccn1 (single isomer, unassigned) [Compound 110, 4-{[4-(2,2-difluoro-1-hydroxyethyl)-3,3-difluoro-2-oxo-2,3-dihydro-1H-indol-1-yl]methyl}pyridine-2-carbonitrile] | 2100 nM
25 | C[C@H](O)c1cccc2c1C(F)(F)C(=O)N2Cc1cccnc1 [Compound 61, 3,3-difluoro-4-[(1S)-1-hydroxyethyl]-1-(pyridin-3-ylmethyl)-1,3-dihydro-2H-indol-2-one] | 420 nM
26 | CC(c1cccc(Cl)n1)N1C(=O)C(F)(F)c2c([C@H](C)O)cccc21 (stereo partly drawn) [Compound 51, 1-[1-(6-chloropyridin-2-yl)ethyl]-3,3-difluoro-4-[(1S)-1-hydroxyethyl]-1,3-dihydro-2H-indol-2-one] | 260 nM
27 | C[C@H](O)c1cccc2c1C(F)(F)C(=O)N2Cc1nc2ccccc2[nH]c1=O [Compound 98, 3-({3,3-difluoro-4-[(1S)-1-hydroxyethyl]-2-oxo-2,3-dihydro-1H-indol-1-yl}methyl) quinoxalin-2(1H)-one] | 34 nM
28 | O=C1N(Cc2cccc(Cl)n2)c2cccc(CO)c2C1(F)F [Compound 16, 1-[(6-chloropyridin-2-yl)methyl]-3,3-difluoro-4-(hydroxymethyl)-1,3-dihydro-2H-indol-2-one] | 140 nM
29 | O=C1N(Cc2ccccc2)c2cccc(C(O)C(F)F)c2C1(F)F (single isomer, unassigned) [Compound 157, 1-benzyl-4-(2,2-difluoro-1-hydroxyethyl)-3,3-difluoro-1,3-dihydro-2H-indol-2-one] | 21 nM
30 | O=C1N(Cc2ccnc(Cl)c2)c2cccc([C@H](O)C(F)(F)F)c2C1(F)F [Compound 31, 1-[(2-chloropyridin-4-yl)methyl]-3,3-difluoro-4-[(1S)-2,2,2-trifluoro-1-hydroxyethyl]-1,3-dihydro-2H-indol-2-one] | 350 nM

Same assay, conditions: table section whose head prints (μm)

Row | Compound | IC50
31 | O=C1N(Cc2cc(Cl)c(F)cn2)c2cccc(C(O)C(F)F)c2C1(F)F (single isomer, unassigned) [Compound 266, 1-[(4-chloro-5-fluoropyridin-2-yl)methyl]-4-(2,2-difluoro-1-hydroxyethyl)-3,3-difluoro-1,3-dihydro-2H-indol-2-one] | 21 nM
